How the values were obtained:
[1] = biological target: AP2-associated protein kinase 1 (Homo sapiens) (UniProt Q2M2I8); conditions: Compound concentration 1000.0 nM
[2] = test system: Tyrosine-protein kinase ABL1 (Homo sapiens), P00519 [F317L]; conditions: Compound concentration 1000.0 nM
[3] = test system: Tyrosine-protein kinase ABL1 (Homo sapiens), P00519 [Q252H]; conditions: Compound concentration 1000.0 nM
[4] = biological target: 5'-AMP-activated protein kinase catalytic subunit alpha-2 (Homo sapiens) (UniProt P54646); conditions: Compound concentration 1000.0 nM
[5] = biological target: Calcium/calmodulin-dependent protein kinase type IV (Homo sapiens) (UniProt Q16566); conditions: Compound concentration 1000.0 nM
[6] = biological target: Calcium/calmodulin-dependent protein kinase kinase 1 (Homo sapiens) (UniProt Q8N5S9); conditions: Compound concentration 1000.0 nM
Sequence of Calcium/calmodulin-dependent protein kinase kinase 1 (Homo sapiens) (Q8N5S9 whole entry, looked up): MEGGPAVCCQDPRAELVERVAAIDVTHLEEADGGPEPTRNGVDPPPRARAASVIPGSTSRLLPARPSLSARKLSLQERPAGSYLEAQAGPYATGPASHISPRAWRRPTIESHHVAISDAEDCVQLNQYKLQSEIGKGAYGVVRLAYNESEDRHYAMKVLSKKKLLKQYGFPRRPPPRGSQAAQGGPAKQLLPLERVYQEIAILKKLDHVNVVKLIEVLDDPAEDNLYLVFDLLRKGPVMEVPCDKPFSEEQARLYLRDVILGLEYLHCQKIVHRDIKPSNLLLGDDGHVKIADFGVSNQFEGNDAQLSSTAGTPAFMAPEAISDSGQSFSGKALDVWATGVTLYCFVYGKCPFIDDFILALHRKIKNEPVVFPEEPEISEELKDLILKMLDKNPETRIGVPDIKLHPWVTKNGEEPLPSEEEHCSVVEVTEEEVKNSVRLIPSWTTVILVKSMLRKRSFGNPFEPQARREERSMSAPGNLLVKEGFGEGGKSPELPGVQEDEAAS

[7] = biological target: Cyclin-dependent kinase 4 (Homo sapiens) (UniProt P11802); conditions: Compound concentration 1000.0 nM
[8] = biological target: Dual specificity protein kinase CLK2 (Homo sapiens) (UniProt P49760); conditions: Compound concentration 1000.0 nM
[9] = biological target: Casein kinase I isoform gamma-3 (Homo sapiens) (UniProt Q9Y6M4); conditions: Compound concentration 1000.0 nM
Sequence of Casein kinase I isoform gamma-3 (Homo sapiens) (Q9Y6M4 whole entry, looked up, canonical isoform): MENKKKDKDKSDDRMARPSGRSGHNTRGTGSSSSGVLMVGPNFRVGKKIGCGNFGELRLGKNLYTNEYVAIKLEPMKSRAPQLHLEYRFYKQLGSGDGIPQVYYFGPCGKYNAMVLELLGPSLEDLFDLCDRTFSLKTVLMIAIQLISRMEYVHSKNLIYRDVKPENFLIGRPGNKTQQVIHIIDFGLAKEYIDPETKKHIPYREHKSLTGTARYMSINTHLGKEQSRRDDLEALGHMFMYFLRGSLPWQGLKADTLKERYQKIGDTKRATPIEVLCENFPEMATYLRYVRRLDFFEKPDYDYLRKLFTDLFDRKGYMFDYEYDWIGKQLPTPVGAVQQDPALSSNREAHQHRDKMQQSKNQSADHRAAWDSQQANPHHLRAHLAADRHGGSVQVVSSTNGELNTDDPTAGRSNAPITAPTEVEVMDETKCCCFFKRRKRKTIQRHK

[10] = biological target: Myotonin-protein kinase (Homo sapiens) (UniProt Q09013); conditions: Compound concentration 1000.0 nM
[11] = test system: Epidermal growth factor receptor (Homo sapiens), P00533 [T790M]; conditions: Compound concentration 1000.0 nM
[12] = biological target: Ephrin type-A receptor 3 (Homo sapiens) (UniProt P29320); conditions: Compound concentration 1000.0 nM
[13] = test system: Receptor-type tyrosine-protein kinase FLT3 (Homo sapiens), P36888 [D835H]; conditions: Compound concentration 1000.0 nM
[14] = test system: Receptor-type tyrosine-protein kinase FLT3 (Homo sapiens), P36888 [UNDEFINED MUTATION]; conditions: Compound concentration 1000.0 nM
[15] = biological target: Tyrosine-protein kinase Fyn (Homo sapiens) (UniProt P06241); conditions: Compound concentration 1000.0 nM
[16] = biological target: Homeodomain-interacting protein kinase 2 (Homo sapiens) (UniProt Q9H2X6); conditions: Compound concentration 1000.0 nM
[17] = biological target: Homeodomain-interacting protein kinase 4 (Homo sapiens) (UniProt Q8NE63); conditions: Compound concentration 1000.0 nM
[18] = biological target: Hormonally up-regulated neu tumor-associated kinase (Homo sapiens) (UniProt P57058); conditions: Compound concentration 1000.0 nM
[19] = biological target: Leucine-rich repeat serine/threonine-protein kinase 2 (Homo sapiens) (UniProt Q5S007); conditions: Compound concentration 1000.0 nM
[20] = biological target: Dual specificity mitogen-activated protein kinase kinase 3 (Homo sapiens) (UniProt P46734); conditions: Compound concentration 1000.0 nM
[21] = biological target: Serine/threonine-protein kinase Nek4 (Homo sapiens) (UniProt P51957); conditions: Compound concentration 1000.0 nM
Sequence of Serine/threonine-protein kinase Nek4 (Homo sapiens) (P51957 whole entry, looked up): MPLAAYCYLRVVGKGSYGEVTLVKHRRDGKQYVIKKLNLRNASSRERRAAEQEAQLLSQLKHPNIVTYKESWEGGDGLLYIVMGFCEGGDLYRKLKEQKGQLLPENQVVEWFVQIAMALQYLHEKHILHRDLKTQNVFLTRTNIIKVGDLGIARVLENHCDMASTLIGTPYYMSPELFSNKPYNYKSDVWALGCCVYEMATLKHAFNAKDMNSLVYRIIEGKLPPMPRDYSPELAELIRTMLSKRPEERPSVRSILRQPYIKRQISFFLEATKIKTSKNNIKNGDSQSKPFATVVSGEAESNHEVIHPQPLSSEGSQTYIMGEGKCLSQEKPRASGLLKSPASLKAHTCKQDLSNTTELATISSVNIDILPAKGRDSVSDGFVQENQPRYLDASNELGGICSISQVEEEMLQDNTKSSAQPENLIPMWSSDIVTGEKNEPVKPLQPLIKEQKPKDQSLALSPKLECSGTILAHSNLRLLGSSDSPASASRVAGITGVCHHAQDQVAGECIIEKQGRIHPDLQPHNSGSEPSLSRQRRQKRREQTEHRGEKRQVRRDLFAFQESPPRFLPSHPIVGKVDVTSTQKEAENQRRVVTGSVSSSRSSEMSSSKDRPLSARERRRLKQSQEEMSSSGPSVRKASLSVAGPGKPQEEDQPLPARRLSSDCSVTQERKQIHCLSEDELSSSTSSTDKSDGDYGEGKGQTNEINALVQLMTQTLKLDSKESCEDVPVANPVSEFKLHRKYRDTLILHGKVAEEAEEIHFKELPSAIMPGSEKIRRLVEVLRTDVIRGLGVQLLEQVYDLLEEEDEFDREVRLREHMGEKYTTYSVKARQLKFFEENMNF

[22] = biological target: Calcium-dependent protein kinase 1 (Plasmodium falciparum) (UniProt P62344); conditions: Compound concentration 1000.0 nM
Sequence of Calcium-dependent protein kinase 1 (Plasmodium falciparum) (P62344 2-524 limits assumed): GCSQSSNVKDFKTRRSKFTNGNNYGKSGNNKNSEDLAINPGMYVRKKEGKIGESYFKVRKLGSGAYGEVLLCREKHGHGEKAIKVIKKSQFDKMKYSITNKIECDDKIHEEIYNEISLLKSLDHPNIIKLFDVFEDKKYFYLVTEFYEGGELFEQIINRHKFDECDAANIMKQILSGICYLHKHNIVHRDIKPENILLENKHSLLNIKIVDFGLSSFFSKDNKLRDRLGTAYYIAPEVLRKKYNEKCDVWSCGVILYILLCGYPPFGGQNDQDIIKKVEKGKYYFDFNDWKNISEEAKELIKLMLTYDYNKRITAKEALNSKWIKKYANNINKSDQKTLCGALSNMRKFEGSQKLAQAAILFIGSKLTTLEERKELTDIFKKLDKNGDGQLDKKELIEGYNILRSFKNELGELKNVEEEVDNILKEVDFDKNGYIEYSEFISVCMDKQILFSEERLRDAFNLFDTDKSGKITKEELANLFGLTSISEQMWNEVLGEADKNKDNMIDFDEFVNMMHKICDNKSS

[23] = test system: Phosphatidylinositol 4,5-bisphosphate 3-kinase catalytic subunit alpha isoform (Homo sapiens), P42336 [H1047L]; conditions: Compound concentration 1000.0 nM
[24] = biological target: Serine/threonine-protein kinase pim-1 (Homo sapiens) (UniProt P11309); conditions: Compound concentration 1000.0 nM
Sequence of Serine/threonine-protein kinase pim-1 (Homo sapiens) (P11309 whole entry, looked up): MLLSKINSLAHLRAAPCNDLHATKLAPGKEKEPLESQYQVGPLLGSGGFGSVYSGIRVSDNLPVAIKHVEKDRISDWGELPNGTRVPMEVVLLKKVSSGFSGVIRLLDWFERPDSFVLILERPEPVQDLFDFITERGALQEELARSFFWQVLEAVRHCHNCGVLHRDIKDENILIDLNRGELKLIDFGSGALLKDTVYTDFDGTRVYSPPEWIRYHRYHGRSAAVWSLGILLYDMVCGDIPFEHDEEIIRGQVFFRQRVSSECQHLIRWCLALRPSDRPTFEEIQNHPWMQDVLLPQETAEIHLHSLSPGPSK

[25] = biological target: Serine/threonine-protein kinase N1 (Homo sapiens) (UniProt Q16512); conditions: Compound concentration 1000.0 nM
[26] = biological target: Serine/threonine-protein kinase PLK4 (Homo sapiens) (UniProt O00444); conditions: Compound concentration 1000.0 nM
[27] = biological target: Serine/threonine-protein kinase D3 (Homo sapiens) (UniProt O94806); conditions: Compound concentration 1000.0 nM
Sequence of Serine/threonine-protein kinase D3 (Homo sapiens) (O94806 whole entry): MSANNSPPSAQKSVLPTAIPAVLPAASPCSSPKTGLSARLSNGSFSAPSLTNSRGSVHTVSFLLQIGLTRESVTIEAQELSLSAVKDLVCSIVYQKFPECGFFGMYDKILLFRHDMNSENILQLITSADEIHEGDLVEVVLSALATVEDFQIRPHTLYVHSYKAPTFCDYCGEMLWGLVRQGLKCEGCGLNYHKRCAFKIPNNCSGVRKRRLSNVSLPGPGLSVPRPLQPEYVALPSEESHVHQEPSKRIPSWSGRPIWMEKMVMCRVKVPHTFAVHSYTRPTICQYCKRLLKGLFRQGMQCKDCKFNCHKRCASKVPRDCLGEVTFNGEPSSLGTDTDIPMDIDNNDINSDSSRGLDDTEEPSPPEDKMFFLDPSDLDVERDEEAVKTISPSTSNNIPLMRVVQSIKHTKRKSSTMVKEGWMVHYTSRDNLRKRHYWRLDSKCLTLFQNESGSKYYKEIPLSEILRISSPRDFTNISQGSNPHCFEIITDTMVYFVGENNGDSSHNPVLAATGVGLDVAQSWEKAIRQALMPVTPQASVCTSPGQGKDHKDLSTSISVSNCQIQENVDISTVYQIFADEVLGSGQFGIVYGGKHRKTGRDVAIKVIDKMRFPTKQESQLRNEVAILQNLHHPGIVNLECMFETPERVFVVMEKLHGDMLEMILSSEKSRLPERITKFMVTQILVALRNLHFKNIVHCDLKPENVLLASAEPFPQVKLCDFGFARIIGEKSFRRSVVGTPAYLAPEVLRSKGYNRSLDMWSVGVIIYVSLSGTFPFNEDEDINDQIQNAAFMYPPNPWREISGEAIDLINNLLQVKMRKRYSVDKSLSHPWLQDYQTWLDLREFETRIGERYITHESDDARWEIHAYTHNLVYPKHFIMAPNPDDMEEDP

[28] = biological target: Interferon-induced, double-stranded RNA-activated protein kinase (Homo sapiens) (UniProt P19525); conditions: Compound concentration 1000.0 nM
[29] = biological target: SNF-related serine/threonine-protein kinase (Homo sapiens) (UniProt Q9NRH2); conditions: Compound concentration 1000.0 nM
[30] = biological target: Proto-oncogene tyrosine-protein kinase Src (Homo sapiens) (UniProt P12931); conditions: Compound concentration 1000.0 nM
[31] = biological target: Serine/threonine-protein kinase tousled-like 1 (Homo sapiens) (UniProt Q9UKI8); conditions: Compound concentration 1000.0 nM
[32] = biological target: Activated CDC42 kinase 1 (Homo sapiens) (UniProt Q07912); conditions: Compound concentration 1000.0 nM
[33] = biological target: Tyrosine-protein kinase TXK (Homo sapiens) (UniProt P42681); conditions: Compound concentration 1000.0 nM
[34] = biological target: Serine/threonine-protein kinase ULK3 (Homo sapiens) (UniProt Q6PHR2); conditions: Compound concentration 1000.0 nM
[35] = biological target: Vascular endothelial growth factor receptor 2 (Homo sapiens) (UniProt P35968); conditions: Compound concentration 1000.0 nM
Sequence of Vascular endothelial growth factor receptor 2 (Homo sapiens) (P35968 whole entry): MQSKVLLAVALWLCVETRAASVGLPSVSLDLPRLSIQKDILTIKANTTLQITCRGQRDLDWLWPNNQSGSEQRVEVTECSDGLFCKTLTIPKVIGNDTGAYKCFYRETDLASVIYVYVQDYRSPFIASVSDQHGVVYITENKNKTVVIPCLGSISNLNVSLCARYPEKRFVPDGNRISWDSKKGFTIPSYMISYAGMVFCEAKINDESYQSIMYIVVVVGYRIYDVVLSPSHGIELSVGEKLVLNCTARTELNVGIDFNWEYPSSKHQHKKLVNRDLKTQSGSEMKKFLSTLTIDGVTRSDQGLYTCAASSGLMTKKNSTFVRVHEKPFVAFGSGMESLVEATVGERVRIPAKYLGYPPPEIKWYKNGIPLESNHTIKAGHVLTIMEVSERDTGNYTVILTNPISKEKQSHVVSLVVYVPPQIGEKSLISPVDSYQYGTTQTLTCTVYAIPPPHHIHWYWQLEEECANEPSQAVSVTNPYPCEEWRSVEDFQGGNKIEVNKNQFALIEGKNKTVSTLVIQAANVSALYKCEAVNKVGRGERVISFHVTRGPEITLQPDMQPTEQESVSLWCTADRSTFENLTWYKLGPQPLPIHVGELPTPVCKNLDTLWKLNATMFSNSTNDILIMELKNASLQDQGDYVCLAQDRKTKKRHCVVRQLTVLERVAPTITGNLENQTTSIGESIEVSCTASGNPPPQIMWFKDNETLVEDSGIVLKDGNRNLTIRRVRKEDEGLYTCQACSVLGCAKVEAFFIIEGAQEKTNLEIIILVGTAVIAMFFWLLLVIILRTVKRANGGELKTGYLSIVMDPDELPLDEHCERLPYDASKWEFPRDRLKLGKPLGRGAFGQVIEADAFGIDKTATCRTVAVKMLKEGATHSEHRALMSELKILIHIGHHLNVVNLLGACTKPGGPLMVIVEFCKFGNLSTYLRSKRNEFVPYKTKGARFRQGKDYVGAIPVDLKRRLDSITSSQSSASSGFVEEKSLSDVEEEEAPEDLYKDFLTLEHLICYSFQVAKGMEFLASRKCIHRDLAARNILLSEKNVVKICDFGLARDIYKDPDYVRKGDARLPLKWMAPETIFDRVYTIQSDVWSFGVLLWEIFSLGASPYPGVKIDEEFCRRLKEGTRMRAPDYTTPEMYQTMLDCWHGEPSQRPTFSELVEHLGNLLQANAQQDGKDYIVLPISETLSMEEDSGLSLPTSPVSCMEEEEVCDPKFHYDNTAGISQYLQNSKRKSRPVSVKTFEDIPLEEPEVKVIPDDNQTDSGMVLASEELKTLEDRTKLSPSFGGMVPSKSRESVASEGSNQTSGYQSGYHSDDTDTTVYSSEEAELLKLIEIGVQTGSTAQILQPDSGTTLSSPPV

[36] = biological target: 5-hydroxytryptamine receptor 5A (Homo sapiens) (UniProt P47898); conditions: Compound concentration 10.0 uM
[37] = biological target: D(1A) dopamine receptor (Homo sapiens) (UniProt P21728); conditions: Compound concentration 10.0 uM
[38] = biological target: Histamine H2 receptor (Homo sapiens) (UniProt P25021); conditions: Compound concentration 10.0 uM
[39] = biological target: T1, Alpha-2A adrenergic receptor (Homo sapiens) (UniProt P08913); conditions: Compound concentration 10.0 uM
T1 sequence (whole entry): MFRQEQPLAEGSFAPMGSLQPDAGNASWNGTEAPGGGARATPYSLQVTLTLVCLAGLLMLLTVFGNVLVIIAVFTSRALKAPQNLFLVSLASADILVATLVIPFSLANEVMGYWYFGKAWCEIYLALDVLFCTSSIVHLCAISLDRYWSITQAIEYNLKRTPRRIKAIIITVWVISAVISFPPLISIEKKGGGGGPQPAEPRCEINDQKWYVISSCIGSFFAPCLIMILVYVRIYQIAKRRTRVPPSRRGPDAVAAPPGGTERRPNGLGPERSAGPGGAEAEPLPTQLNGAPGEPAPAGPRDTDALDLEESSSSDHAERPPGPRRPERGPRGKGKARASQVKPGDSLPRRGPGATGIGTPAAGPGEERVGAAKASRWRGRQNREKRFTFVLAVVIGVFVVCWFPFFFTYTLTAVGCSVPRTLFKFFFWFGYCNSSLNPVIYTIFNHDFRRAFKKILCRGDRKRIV

CN(C)CC#Cc1ccc(OCCCc2sc(N3CCc4cccc(C(=O)Nc5nc6ccccc6s5)c4C3)nc2C(=O)O)c(F)c1 [A-1155463]
inactive: residual activity [1] 91% | residual activity [2] 100% | residual activity [3] 94% | residual activity [4] 99% | residual activity [5] 98% | residual activity [6] 87% | residual activity [7] 100% | residual activity [8] 83% | residual activity [9] 100% | residual activity [10] 100% | residual activity [11] 100% | residual activity [12] 91% | residual activity [13] 93% | residual activity [14] 100% | residual activity [15] 96% | residual activity [16] 100% | residual activity [17] 100% | residual activity [18] 56% | residual activity [19] 100% | residual activity [20] 100% | residual activity [21] 98% | residual activity [22] 100% | residual activity [23] 68% | residual activity [24] 100% | residual activity [25] 91% | residual activity [26] 77% | residual activity [27] 93% | residual activity [28] 100% | residual activity [29] 100% | residual activity [30] 100% | residual activity [31] 86% | residual activity [32] 100% | residual activity [33] 100% | residual activity [34] 100% | residual activity [35] 100% | inhibition [36] -3.1% | inhibition [37] 24.6% | inhibition [38] 23.2% | inhibition [39] 7.32%
